According to US20090062294A1, “HETEROARYL-SUBSTITUTED UREA MODULATORS OF FATTY ACID AMIDE HYDROLASE” (priority 2007, published 2009):
Counter-ions that a name gives are not always drawn.

Key:
[1] = biological target: T1, FAAH (Homo sapiens, UniProt O00519); assay: Assay Method 1: FAAH assay, 3H-anandamide hydrolysis in homogenate of T84 cells or SK-N-MC cells transfected with human FAAH; format: biochemical; settings: average of results, > = solubility limit or highest concentration tested
T1 sequence (O00519 1-579): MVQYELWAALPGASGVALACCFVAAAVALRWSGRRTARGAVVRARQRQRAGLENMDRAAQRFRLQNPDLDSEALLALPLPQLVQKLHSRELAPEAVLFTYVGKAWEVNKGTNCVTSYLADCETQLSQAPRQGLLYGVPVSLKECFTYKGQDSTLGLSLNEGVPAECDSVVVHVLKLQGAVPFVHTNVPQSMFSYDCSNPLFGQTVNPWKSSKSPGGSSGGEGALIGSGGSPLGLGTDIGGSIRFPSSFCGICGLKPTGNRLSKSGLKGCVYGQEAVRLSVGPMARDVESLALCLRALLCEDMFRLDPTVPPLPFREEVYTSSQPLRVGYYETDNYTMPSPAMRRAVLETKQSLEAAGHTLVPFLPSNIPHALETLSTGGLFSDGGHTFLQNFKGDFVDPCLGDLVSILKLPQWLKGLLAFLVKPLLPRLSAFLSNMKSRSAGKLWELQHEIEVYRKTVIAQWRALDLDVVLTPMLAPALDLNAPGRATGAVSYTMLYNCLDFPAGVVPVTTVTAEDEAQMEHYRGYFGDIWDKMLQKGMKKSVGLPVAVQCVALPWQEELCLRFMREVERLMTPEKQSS
How it was run: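 Hydrolysis of ^3H-anandamide (80 nM final, added last) was measured over 1 h at rt, using test compound with homogenate of T84 cells or human FAAH-transfected SK-N-MC cells. The homogenization buffer was 125 mM Tris, 1 mM EDTA, 0.02% Triton X-100, pH 9. Unbound labelled ethanolamine was passed through charcoal filters and scintillation-counted.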

[2] = biological target: T2, rat FAAH (Rattus norvegicus, UniProt P97612); assay: Assay Method 2: FAAH assay, 3H-anandamide hydrolysis in homogenate of SK-N-MC cells transfected with rat FAAH; format: biochemical; settings: average of results, > = solubility limit or highest concentration tested
T2 sequence (P97612 1-579): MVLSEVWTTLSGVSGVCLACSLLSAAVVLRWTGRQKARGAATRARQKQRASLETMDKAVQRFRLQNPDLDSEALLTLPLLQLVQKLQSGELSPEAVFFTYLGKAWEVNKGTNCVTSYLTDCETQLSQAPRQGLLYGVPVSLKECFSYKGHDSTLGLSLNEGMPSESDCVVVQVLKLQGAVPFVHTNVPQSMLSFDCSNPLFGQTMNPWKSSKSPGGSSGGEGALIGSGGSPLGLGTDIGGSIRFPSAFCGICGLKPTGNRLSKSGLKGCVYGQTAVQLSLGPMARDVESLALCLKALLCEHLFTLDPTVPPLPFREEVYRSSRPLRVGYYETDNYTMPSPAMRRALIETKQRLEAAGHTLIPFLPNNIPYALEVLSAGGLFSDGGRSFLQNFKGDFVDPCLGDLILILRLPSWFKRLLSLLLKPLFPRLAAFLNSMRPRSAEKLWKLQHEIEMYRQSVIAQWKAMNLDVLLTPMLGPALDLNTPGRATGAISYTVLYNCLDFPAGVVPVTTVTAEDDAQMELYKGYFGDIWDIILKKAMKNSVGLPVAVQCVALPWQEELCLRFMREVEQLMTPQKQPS
How it was run: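 Read-out is scintillation counting of [3H]-ethanolamine passing through activated charcoal, after 1 h at rt with 80 nM final [3H]-AEA. Enzyme source: lysate of G418-selected SK-N-MC clones expressing rat FAAH, homogenized in Tris/EDTA/glycerol/0.02% Triton buffer, pH 9.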

Row | IC50 [1] [nM] | IC50 [2] [nM] | SMILES
1 | 1200 | 480 | O=C(Nc1nn[nH]n1)N1CCN(Cc2ccc(Br)c(F)c2)CC1 [Example 168, 4-(4-Bromo-3-fluorobenzyl)-N-1H-tetrazol-5-ylpiperazine-1-carboxamide]
2 | 610 | 600 | O=C(Nc1nn[nH]n1)N1CCN(Cc2cccc(Oc3ccc(F)c(F)c3)c2)CC1 [Example 169, 4-[3-(3,4-Difluorophenoxy)benzyl]-N-1H-tetrazol-5-ylpiperazine-1-carboxamide]
3 | 1200 | 1800 | N#Cc1ccc(Oc2cccc(CN3CCN(C(=O)Nc4nn[nH]n4)CC3)c2)cc1C(F)(F)F [Example 170, 4-{3-[4-Cyano-3-(trifluoromethyl)phenoxy]benzyl}-N-1H-tetrazol-5-ylpiperazine-1-carboxamide]
4 | 200 | 35 | O=C(Nc1nnn[nH]1)N1CCN(Cc2cccc(Oc3ccc(C(F)(F)F)cc3)c2)CC1 [Example 171, N-1H-Tetrazol-5-yl-4-{3-[4-(trifluoromethyl)phenoxy]benzyl}piperazine-1-carboxamide]
5 | 50 | 10 | O=C(Nc1nnn[nH]1)N1CCN(Cc2cccc(Oc3ccc(SC(F)(F)F)cc3)c2)CC1 [Example 172, N-1H-Tetrazol-5-yl-4-(3-{4-[(trifluoromethyl)sulfanyl]phenoxy}benzyl)-piperazine-1-carboxamide]
6 | 225 | 200 | O=C(Nc1nnn[nH]1)N1CCN(Cc2cccc(Oc3cccc(OC(F)(F)F)c3)c2)CC1 [Example 173, N-1H-Tetrazol-5-yl-4-{3-[3-(trifluoromethoxy)phenoxy]benzyl}piperazine-1-carboxamide]
7 | 100 | 30 | O=C(Nc1nnn[nH]1)N1CCN(Cc2cccc(Oc3ccc(Cl)c(Cl)c3)c2)CC1 [Example 174, 4-[3-(3,4-Dichlorophenoxy)benzyl]-N-1H-tetrazol-5-ylpiperazine-1-carboxamide]
8 | 2000 | 450 | O=C(Nc1nnn[nH]1)N1CCN(Cc2ccc3ccccc3c2)CC1 [Example 176, 4-(Naphthalen-2-ylmethyl)-N-1H-tetrazol-5-ylpiperazine-1-carboxamide]
9 | 5000 | 1700 | O=C(Nc1nn[nH]n1)N1CCN(Cc2ccc(Br)cc2)CC1 [Example 177, 4-(4-Bromo-benzyl)-piperazine-1-carboxylic acid (2H-tetrazol-5-yl)-amide]
10 | > 10000 | > 10000 | O=C(Nc1nn[nH]n1)N1CCN(Cc2ccc3cc[nH]c3c2)CC1 [Example 178, 4-(1H-Indol-6-ylmethyl)-piperazine-1-carboxylic acid (2H-tetrazol-5-yl)-amide]
11 | 1600 | 1200 | O=C(Nc1nn[nH]n1)N1CCN(Cc2cccc(OCc3ccccc3)c2)CC1 [Example 179, 4-(3-Benzyloxy-benzyl)-piperazine-1-carboxylic acid (2H-tetrazol-5-yl)-amide]
12 | 5000 | 1600 | O=C(Nc1nn[nH]n1)N1CCN(Cc2cccc(Oc3ccccc3)c2)CC1 [Example 181, 4-(3-Phenoxy-benzyl)-piperazine-1-carboxylic acid (2H-tetrazol-5-yl)-amide]
13 | 1700 | 340 | O=C(Nc1nn[nH]n1)N1CCN(Cc2ccc(Cl)c(Cl)c2)CC1 [Example 182, 4-(3,4-Dichloro-benzyl)-piperazine-1-carboxylic acid (2H-tetrazol-5-yl)-amide]
14 | 1400 | 430 | O=C(Nc1nn[nH]n1)N1CCN(Cc2cc3ccccc3s2)CC1 [Example 183, 4-Benzo[b]thiophen-2-ylmethyl-piperazine-1-carboxylic acid (2H-tetrazol-5-yl)-amide]
15 | 450 | 440 | O=C(Nc1nn[nH]n1)N1CCN(Cc2cccc(Oc3ccc(F)c(C(F)(F)F)c3)c2)CC1 [Example 185, 4-{3-[4-Fluoro-3-(trifluoromethyl)phenoxy]benzyl}-N-2H-tetrazol-5-ylpiperazine-1-carboxamide]
16 | 330 | 160 | O=C(Nc1nn[nH]n1)N1CCN(Cc2cccc(Oc3cccc(C(F)(F)F)c3)c2)CC1 [Example 186, N-2H-Tetrazol-5-yl-4-{3-[3-(trifluoromethyl)phenoxy]benzyl}piperazine-1-carboxamide]
17 | 1600 | 1000 | N#Cc1ccc(Oc2cccc(CN3CCN(C(=O)Nc4nn[nH]n4)CC3)c2)cc1 [Example 187, 4-[3-(4-Cyanophenoxy)benzyl]-N-2H-tetrazol-5-ylpiperazine-1-carboxamide]
18 | 80 | 20 | O=C(Nc1nn[nH]n1)N1CCN(Cc2cccc(Oc3ccc(OCC(F)(F)F)cc3)c2)CC1 [Example 188, N-2H-Tetrazol-5-yl-4-{3-[4-(2,2,2-trifluoroethoxy)phenoxy]benzyl}-piperazine-1-carboxamide]
19 | 70 | 17 | O=C(Nc1nn[nH]n1)N1CCN(Cc2cccc(Oc3ccc4c(c3)OC(F)(F)O4)c2)CC1 [Example 189, 4-{3-[(2,2-Difluoro-1,3-benzodioxol-5-yl)oxy]benzyl}-N-2H-tetrazol-5-ylpiperazine-1-carboxamide]
20 | 3000 | 3700 | O=C(Nc1nn[nH]n1)N1CCN(Cc2cccc(Oc3ccccc3Cl)c2)CC1 [Example 190, 4-[3-(2-Chlorophenoxy)benzyl]-N-2H-tetrazol-5-ylpiperazine-1-carboxamide]
21 | 3000 | > 10000 | Cc1cc(NC(=O)N2CCN(Cc3cccc(Oc4ccc(Cl)cc4)c3)CC2)nn1C [Example 191, 4-[3-(4-Chloro-phenoxy)-benzyl]-piperazine-1-carboxylic acid (1,5-dimethyl-1H-pyrazol-3-yl)-amide trifluoroacetic acid salt]
22 | 4000 | > 10000 | Cn1cc(Br)c(NC(=O)N2CCN(Cc3cccc(Oc4ccc(Cl)cc4)c3)CC2)n1 [Example 192, 4-[3-(4-Chloro-phenoxy)-benzyl]-piperazine-1-carboxylic acid (4-bromo-1-methyl-1H-pyrazol-3-yl)-amide trifluoroacetic acid salt]
23 | 327 | 6000 | CCn1nccc1NC(=O)N1CCN(Cc2cccc(Oc3ccc(Cl)cc3)c2)CC1 [Example 193, 4-[3-(4-Chloro-phenoxy)-benzyl]-piperazine-1-carboxylic acid (2-ethyl-2H-pyrazol-3-yl)-amide trifluoroacetic acid salt]
24 | 220 | 4000 | Cc1cc(NC(=O)N2CCN(Cc3cccc(Oc4ccc(Cl)cc4)c3)CC2)n[nH]1 [Example 194, 4-[3-(4-Chlorophenoxy)benzyl]-N-(5-methyl-1H-pyrazol-3-yl)piperazine-1-carboxamide]
25 | 110 | 310 | O=C(Nc1cccnn1)N1CCN(Cc2ccc(Br)c(Br)c2)CC1 [Example 195, 4-(3,4-Dibromobenzyl)-N-pyridazin-3-ylpiperazine-1-carboxamide]
26 | 6000 | 1600 | O=C(Nc1cccnn1)N1CCN(Cc2ccc3c(c2)OC(F)(F)O3)CC1 [Example 196, 4-[(2,2-Difluoro-1,3-benzodioxol-5-yl)methyl]-N-pyridazin-3-ylpiperazine-1-carboxamide]
27 | 1300 | 9000 | O=C(Nc1cccnn1)N1CCN(Cc2cnc3ccccc3c2)CC1 [Example 197, N-Pyridazin-3-yl-4-(quinolin-3-ylmethyl)piperazine-1-carboxamide]
28 | 390 | 6000 | O=C(Nc1cccnn1)N1CCN(Cc2ccc3ccccc3n2)CC1 [Example 198, N-Pyridazin-3-yl-4-(quinolin-2-ylmethyl)piperazine-1-carboxamide]
29 | 280 | 590 | O=C(Nc1cccnn1)N1CCN(Cc2ccc(Cl)c(Cl)c2)CC1 [Example 199, 4-(3,4-Dichlorobenzyl)-N-pyridazin-3-ylpiperazine-1-carboxamide]
